Reference: patent US20030203963A1, “Antimicrobial agent” (priority 2001, published 2003)

Legend:
[1] = tested on: Salmonella Typhimurium S29; experiment: Chicken soup trial at 20° C.; format: cell-based; details: chicken soup at 20° C., TCSM010430, APP20010213
Text: (§1) A local supermarket brand of cream of chicken soup was used as a model food system. 600 g packs were purchased from the local supermarket. This was a ‘fresh home-made type’ of soup that was stored in the chill cabinet, with a short shelf life. It was chosen because it is a rich, nutritious food system containing a range of food components including meat, dairy and vegetable.
(§2) Ingredients were labelled as: chicken stock (water, duck fat, chicken, salt, flavourings, yeast extracts, pork gelatine, glucose syrup, vegetable concentrate, milk protein, sugar, malto-dextrin, vegetable oil, citric acid, lactose, chicken fat), ilk, chicken (9%), cream (8%), onion, potato, vegetable oil, modified maize starch, wheat flour, lemon juice, salt, white pepper. pH 5.912. Protein: 3.3%; carbohydrate: 4.7%; fat: 7.2%; fibre: 0.2%; sodium: 0.1%
(§3) For the test the soup was mixed 2:1 in water (to facilitate sampling and mixing) and sterilised by autoclaving at 121° C. for 15 minutes. For each experiment the pH of the soup was recorded; this was between pH 5.79-5.88.
For TCS010430/20 (incubated at 20° C.) samples were prepared in 18.8 g quantities, to which 1 g of a suitable filter-sterilised APP stock solution was added and an appropriately diluted 0.2 ml inoculum. Great care was again taken to ensure homogeneous distribution of the APP and micro-organisms. This test was sampled by viable count test on a daily basis.

Cl. tyrobutyricum 2753 = experiment: Sensitivity testing for Clostridium species in cooked meat medium; format: cell-based; details: highest level tested 2000 ppm APP20010215, anaerobically at 37° C.
Protocol: Stock solutions of APP215 (0.5, 1 and 2%) were prepared and filter-sterilised. Cooked meat medium (CMM, Oxoid) was prepared by distributing 1 g of the medium to individual test tubes, which were then filled with 8.9 ml water. After autoclaving 100 μl of the APP stock solutions were added, to give final concentrations of 0, 500, […] and 2000 ppm APP. The tests were inoculated with […] of Clostridium spores, to give an inoculum level of ca. 10 cfu/ml. The tubes were overlaid with 3 ml of 2% agar to maintain anaerobicity. The tests were incubated at 37° C., and examined daily for signs of growth (turbidity, gas production).

Ps. fluorescens 327 = experiment: Chicken soup trial at 8° C.; format: cell-based, Pseudomonas fluorescens; details: chicken soup at 8° C., TCSM010521, APP215
Text: as §1, §2, §3
(§4) For TCS010521/8 (incubated at 8° C.), samples were prepared in 27.8 g quantities. 1.5 g of an APP stock solution was added, and the tests inoculated with 0.3 ml of a suitably diluted cell or spore suspension to give a final inoculum of ca. 10^3 cfu/g. APP was tested at 0, 500 and 1000 ppm, and batch number APP20010213 (at 169 mg/ml) was used. The tests were sampled by viable count and then incubated at 8° C. and tested on a twice-weekly basis.

Salm. Typhimurium S29 = experiment: Bioscreen growth inhibition test; format: cell-based, Salmonella Typhimurium; details: BS010411, 24 h/30° C.
Protocol: (§5) For broth cultures and Bioscreen testing most bacteria were grown in Brain Heart Infusion (BHI, Oxoid, pH 7.4). Lactobacillus sake A10 was grown in de Man, Rogosa, Sharpe medium ([…], Oxoid). Yeasts were grown in Sabouraud Liquid medium (SLM, Oxoid). Most bacteria were cultured at 30° C. Lactic acid bacteria were grown on solid medium in enriched CO2 atmosphere. Clostridium species were grown in Reinforced Clostridial Medium (RCM) at 37° C. anaerobically. Brochothrix thermosphacta fungi and yeasts were grown at 25° C. Fungi were cultured on Malt Extract Agar (MEA, Oxoid).
(§6) An automated Microbiology Reader Bioscreen C was used to measure growth curves of the strains in the presence and absence of APP. The Bioscreen C measures the development of turbidity (i.e. growth) kinetically by vertical photometry in 200 wells of a honeycomb microtitre plate, simultaneously. The system consists of a Bioscreen C analyser, which is an incubator and measurement unit, integrated with a PC, software (BioLink v 5.30), printer and a ‘Honeycomb 2’ cuvette multiwell plate. Growth curve data can be analysed within the BioLink software or exported to programs such as Excel.
(§7) Broth culture media were dispensed in 270 μl volumes into the wells as directed. Serial dilutions of a filter-sterilised APP stock solution were then dispensed into the same wells, as appropriate. The wells were inoculated with 30 μl of an appropriately diluted overnight broth culture or spore suspension, to give a final inoculum level of […]. The tests were incubated in the Bioscreen C for either 24 h at 30° C., or 72 h at 25° C. (depending on the micro-organism under investigation) with readings taken every 20 minutes after the trays were shaken. After the incubation period was complete the data were exported to Excel for analysis.

S. cerevisiae 9763 = experiment: Chicken soup trial at 20° C.; format: cell-based, Saccharomyces cerevisiae; details: 2000 ppm; chicken soup at 20° C., TCSM010430, APP20010213
Text: as §1, §2, §3
For TCS010430/20 (incubated at 20° C.) samples were prepared in 18.8 g quantities, to which 1 g of a suitable filter-sterilised APP stock solution was added and an appropriately diluted 0.2 ml inoculum. Great care was again taken to ensure homogeneous distribution of the APP and micro-organisms. […]

[2] = cited from earlier work
Most yeasts = experiment: Lab media at optimum temperature (summary); format: cell-based
Protocol: as §5, §6, §7

Salmonella spp = experiment: Lab media at optimum temperature (summary); format: cell-based
Protocol: as §5, §6, §7

L. monocytogenes 272 = experiment: Chicken soup trial at 8° C.; format: cell-based, Listeria monocytogenes; details: chicken soup at 8° C.
Text: as §1, §2, §3
For TCS010412/8 (which was incubated at 8° C.), APP batch number APP20010213 (concentration 169 mg APP/ml) was used to prepare tests containing 0, 2000 or 4000 ppm APP. 5 g of filter-sterilised APP stock solution was added to 94 g of soup, mixed and then 1 ml of a diluted inoculum suspension (cells or spores as appropriate) was added to give a test inoculum level of 10^3 cfu/g. The soup mixture was shaken vigorously to ensure homogeneous distribution of the APP and micro-organisms. The tests were tested by viable count and then incubated at 8° C. and tested on a twice-weekly basis.
as §4

[3] = 2000 ppm, TCS010412, APP20010213
[4] = 4000 ppm, TCS010412, APP20010213

O=C1CC(CO)OC=C1O (stereo not shown) [APP, Ascopyrone P]
Effect on growth ([1]; 1000 ppm): No effect with 1000 ppm | Final count ([1]; 2000 ppm (cf 10^9 without)): 10^6 | Counts drop after ([1]; 2000 ppm): 8 days | Counts undetectable by ([1]; 2000 ppm): counts drop, undetectable by 18 d. | Growth inhibition (Cl. tyrobutyricum 2753): No growth inhibition | Effect on growth (Ps. fluorescens 327; 500 ppm): Little effect with 500 ppm | Counts undetectable (Ps. fluorescens 327; 1000 ppm): At 1000 ppm counts undetectable >7 d | Total inhibition for (Ps. fluorescens 327; 1000 ppm): Total inhibition by 1000 ppm for >27 days. | APP level causing significant inhibition (Salm. Typhimurium S29; APP 20010213): 2000 ppm | APP level causing total inhibition (Salm. Typhimurium S29; APP 20010213): 4000 ppm | APP level causing significant inhibition (Salm. Typhimurium S29; APP 20010215): 2000 ppm | APP level causing total inhibition (Salm. Typhimurium S29; APP 20010215): >4000 ppm | Effect on growth (S. cerevisiae 9763): No effect with 2000 ppm | pH at which stable ([2]; less stable at increasing pH): 1.5-5.5 | half-life ([2]; pH 11-12.5): 5 h | Effect on growth of target organism by 2000 ppm APP (remark in No inhibition column) (Most yeasts): (enhanced growth) | No inhibition (effect on growth of target organism by 2000 ppm APP) (Most yeasts): Most yeasts | Partial inhibition (effect on growth of target organism by 2000 ppm APP) (Salmonella spp): Salmonella spp | Effect on growth (L. monocytogenes 272; 500 ppm, TCSM010521, APP215): No effect with 500 ppm | Effect on growth (L. monocytogenes 272; 1000 ppm, TCSM010521, APP215): No total inhibition | Effect on growth rate (L. monocytogenes 272; 1000 ppm, TCSM010521, APP215): slight reduction | Counts reach (L. monocytogenes 272; [3]): Counts reach <105 with 2000 ppm. | Counts undetectable after (L. monocytogenes 272; [3]): Counts undetectable after ca 50 days at 2000 ppm | Counts undetectable after (L. monocytogenes 272; [4]): Counts undetectable after 20 days at 4000 ppm | Total inhibition for (L. monocytogenes 272; [4]): Total inhibition by 4000 ppm for >60 days.
